Assay [1] deals with T1, sigma receptors (Rattus norvegicus, UniProt Q9R0C9).
T1 construct: a preparation of rat brain membrane; from tissue; host or cells: rat brain membranes
Briefly: In vitro binding to sigma receptors with (+)[^3 H]SKF10.047. The following applies: for IC50: rat brain membrane, (+)[^3 H]SKF10.047; for IC50, haloperidol / IC50, example: ratio to haloperidol, second series, rat brain membranes, [^3 H]SKF10.047.
Description: Experiments on binding to sigma and PCP receptors are performed with the ligands (+)[^3 H]SKF10.047 and [^3 H]TCP, respectively, by the technique described by Largent, B. L., et al. in J. Pharmacol. Exp. Ther., 1986, Vol. 238, pp. 739-748. The principle of this technique is to place in competition the affinity of the test substance and that of a radioactive ligand specific for the receptor being studied.
The results are expressed as the IC50 of the test substance, which is the concentration at which the tritiated ligand is displaced from 50% of its binding sites in the membrane preparation used.

Assay [2] deals with cysteamine-induced gastroduodenal ulcers. Nature of the assay: Cysteamine-induced gastroduodenal ulcer. The note with it: I.P. route, 30 min before ulcerogenic agent, dose inhibiting 50% of ulcers; for ED50: Rattus norvegicus, ip, 18 h. The class given is in vivo, male Sprague-Dawley rats. The protocol: The activity of the compounds of the invention with respect to the gastrointestinal tract was shown in the rat by their ability to inhibit gastroduodenal ulcers induced by the administration of cysteamine. In terms of practical methodology, the study is performed according to the method described by Robert, A., et al., in Digestion, 1974, Vol. 11, pp. 199-214, in groups of male Sprague-Dawley rats with an average weight of 200 g, to which a cysteamine hydrochloride solution is administered by subcutaneous injection in a dose of 400 mg/kg. The test compounds are administered to the animals 1 h or 30 min, respectively, before the ulcerogenic agent, depending on whether the oral or intraperitoneal route is used. Eighteen hours later, the rats are sacrificed by elongation; the stomach and duodenum are removed, rinsed with physiological salt solution, and pinned to a card. The antropyloroduodenal region is examined for ulcers, and the area of the ulcers, expressed in mm^2, is determined by multiplying the two main perpendicular axes of the lesion. Statistical analysis of the results is performed by means of Student's t-test for the ulcerated areas in comparison with a control group. The results obtained after intraperitoneal administration are presented in Table 3 and are expressed as the ED50, which is the effective dose (mg/kg) of compound inhibiting 50% of the cysteamine-induced ulcers. Igmesine is presented by way of comparison.

Assay [3] deals with PCP receptors. Nature of the assay: In vitro binding to PCP receptors with [^3 H]TCP. The following applies: rat brain membrane. The protocol:
The test of binding to phenylcyclidine receptors (PCP receptors), performed in the presence of a ligand specific for PCP receptors, [^3 H]TCP, was used to investigate any undesirable interaction of the compounds of the invention with these receptors.
The principle of this technique is to place in competition the affinity of the test substance and that of a radioactive ligand specific for the receptor being studied.
The technique consists in incubating a preparation of rat brain membrane loaded with the labeled ligand specific for the receptor under study in solutions of varying concentration of the test substance. After filtration, one measures the radioactivity of the solution, which represents the displacement of this labeled ligand by the test substance.

Where a name gives a salt, the structure may show the parent alone.

Results on 16 compounds are retold here after US5849760A, “2-(arylalkenyl)azacycloalkane derivatives as ligands for sigma receptors” (Institut de Recherche Jouveinal, priority 1993, dated 1998).

T1 sequence (Q9R0C9 whole entry): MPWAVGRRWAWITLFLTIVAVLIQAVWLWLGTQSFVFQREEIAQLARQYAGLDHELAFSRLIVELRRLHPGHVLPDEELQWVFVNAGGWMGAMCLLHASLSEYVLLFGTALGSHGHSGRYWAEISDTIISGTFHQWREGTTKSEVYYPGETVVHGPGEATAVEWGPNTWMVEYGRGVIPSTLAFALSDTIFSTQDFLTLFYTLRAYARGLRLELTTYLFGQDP

For `C(=C\c1ccccc1)/CC1CCCN1CC1CC1` (racemic) [Example 1.1, (±)-(E)-2-cinnamyl-1-cyclopropylmethylpyrrolidine], the concentration for half-maximal inhibition (IC50) was 34.2 nM in assay [1] and above 10000 nM in assay [3]. In assay [2], this compound registered an ED50 of 0.185 mg/kg.
As for `C(=C\c1ccccc1)/CC1CCCN1CC1CC1` (single isomer, unassigned; (+)) [Example 1.2, (+)-(E)-2-cinnamyl-1-cyclopropylmethylpyrrolidine], in assay [2], the ED50 is below 0.1 mg/kg.
Compound `C(=C\c1ccccc1)/CC1CCCCN1CC1CC1` (single isomer, unassigned; (+)) [Example 2A.2, (+)-(E)-2-cinnamyl-1-(cyclopropylmethyl)piperidine] came in with an ED50 in assay [2] below 0.1 mg/kg.
On to `CCC(C/C=C/c1ccccc1)(c1ccccc1)N(C)CC1CC1` (single isomer, unassigned; (+)) [Igmesine, (+)-N-(cyclopropylmethyl)-1-ethyl-N-methyl-1,4-diphenyl-3-butene-1-ylaminehydrochloride, reference compound], for which the ED50 in assay [2] was 5.95 mg/kg.
On to `C(=C\c1ccccc1)/CC1CCCN1CC1CC1` (single isomer, unassigned; (-)) [Example 1.3, (-)-(E)-2-cinnamyl-1-cyclopropylmethylpyrrolidine], for which the “IC50, haloperidol / IC50, example” value in assay [1] is listed as 1.6. Besides, the “ED50, cysteamine-induced ulcer” value in assay [2] (1080 min) is listed as below 0.100 mg/kg.
As to `C(=C\c1ccccc1)/CC1CCCCN1CC1CC1` (single isomer, unassigned; (-)) [Example 2A.3, (-)-(E)-2-cinnamyl-1-(cyclopropylmethyl)piperidine], in assay [1], the “IC50, haloperidol / IC50, example” value is 1.4.
For `C(=C\c1ccccc1)/CC1CCCN1CC1CCC1` (stereo not drawn) [Example 1.4, (E)-2-cinnamyl-1-cyclobutylmethylpyrrolidine], in assay [1] (in words), the “affinity for sigma receptors” value is reported as “strong affinity for sigma receptors”. The 50% inhibitory concentration (IC50) in assay [1] was 4.52 nM; in assay [3] it was above 10000 nM. For the same compound, the ED50 in assay [2] is 0.137 mg/kg.
In the case of `C(=C\c1ccccc1)/CC1CCCN1CCc1ccccc1` (stereo not drawn) [Example 1.6, (E)-2-cinnamyl-1-phenethylpyrrolidine], in assay [1], the “IC50, haloperidol / IC50, example” value came out at 1.3.
In the case of `C(=C\c1ccccc1)/CC1CCCCN1CC1CC1` (stereo not drawn) [Example 2A.1, (E)-2-cinnamyl-1-cyclopropylmethylpiperidine], it took a dose of 0.1 mg/kg to reach the 50% effect level in assay [2] (ED50).
In the case of `C(=C\c1ccccc1)/CC1CCCCN1CC1CCC1` (stereo not drawn) [Example 2A.4, (E) -2-cinnamyl-1-cyclobutylmethylpiperidine], in assay [1], the “IC50, haloperidol / IC50, example” value was 2.3.
Same read-out and setting: then `C(=C\c1ccccc1)/CC1CCCCN1CCc1ccccc1` (stereo not drawn) [Example 2A.5, (E)-2-cinnamyl-1-(phenethyl)piperidine], with 1.0.
As for `C(=C/c1ccccc1)/CC1CCCCN1CC1CC1` (stereo not drawn) [Example 2A.6, (Z)-2-cinnamyl-1-cyclopropylmethylpiperidine], the IC50 in assay [1] was 34.3 nM; in assay [3], above 10000 nM. The 50% effective dose (ED50) in assay [2] is below 0.1 mg/kg.
As to `Fc1ccc(/C=C\CC2CCCCN2CC2CC2)cc1` (stereo not drawn) [Example 2B.2, (Z)-2-(p-fluorocinnamyl)-1-cyclopropylmethylpiperidine], in assay [1], the “IC50, haloperidol / IC50, example” value is 1.6.
On to `FC(F)(F)c1ccc(/C=C/CC2CCCCN2CC2CC2)cc1` (stereo not drawn) [Example 2G, (E)-2-(p-trifluoromethylcinnamyl)-1-cyclopropylmethylpiperidine], for which the “IC50, haloperidol / IC50, example” value in assay [1] amounted to 0.8.
The same measure, in the same setting: then `C(=C/c1ccccc1)/CC1CCCN1CC1CC1` (stereo not drawn) [Example 2K, (Z)-2-cinnamyl-1-cyclopropylmethylpyrrolidine], with 4.3.
On the same count and under the same terms, then `Fc1ccc(/C=C/CC2CCCN2CC2CC2)cc1` (stereo not drawn) [Example 2L, (E)-2-(p-fluorocinnamyl)-1-cyclopropylmethylpyrrolidine], with 1.1.

What is called IC50 is the concentration that gives 50% inhibition. Read a high IC50 as lower potency. The term ED50 denotes the midpoint of the dose-response relation. Low values mean greater potency, high ones weaker potency.
